Results published in ChEMBL document CHEMBL1154530, “Pyridyl-pyrimidine benzimidazole derivatives as potent, selective, and orally bioavailable inhibitors of Tie-2 kinase” (Bioorg Med Chem Lett, 2009).
Active and inactive are the calls of the source. The rule behind the calls is not given here.

Experiments:
Angiopoietin-1 receptor [1] = molecular target: T1, Angiopoietin-1 receptor (Homo sapiens, UniProt Q02763); test: Inhibition of Tie2
[2] = molecular target: Vascular endothelial growth factor receptor 2 (Homo sapiens, UniProt P35968); test: Inhibition of KDR
Angiopoietin-1 receptor [3] = molecular target: T1, Angiopoietin-1 receptor; test: Inhibition of Tie2 autophosphorylation in human Ea.hy926 cells; assay type: cell-based
Plasma = test: Unbound concentration in mouse plasma
[4] = Protein binding in mouse plasma; assay type: ADME, cell-free; settings: read-out: PPB (converted)
Mus musculus [5] = test: Inhibition of human angiopoietin-1-stimulated Tie2 phosphorylation in mouse lung tissue model at 10 mg/kg, po; assay type: functional; design: scale not given: the % may be the effect or the level left
[6] = Volume of distribution at steady state in Sprague-Dawley rat at 0.5 mg/kg, iv; assay type: ADME, organism-based; design: dose 0.5 mg/kg, route intravenous; settings: in vivo, read-out: Vdss
[7] = Oral bioavailability in Sprague-Dawley rat at 5 mg/kg; assay type: ADME, organism-based; settings: in vivo
Mus musculus [8] = test: Inhibition of human angiopoietin-1-stimulated Tie2 phosphorylation in po dosed mouse lung tissue model; assay type: functional, organism-based
[9] = Inhibition of Aurora kinase in human HeLa cells assessed as induction of >=4N DNA content; assay type: cell-based
[10] = Half life in Sprague-Dawley rat at 0.5 mg/kg, iv; assay type: ADME, organism-based; design: dose 0.5 mg/kg, route intravenous; settings: in vivo
Aurora kinase B = Aurora kinase B (Homo sapiens, UniProt Q96GD4); test: Inhibition of Aurora B
[11] = Clearance in Sprague-Dawley rat at 0.5 mg/kg, iv; assay type: ADME, organism-based; design: dose 0.5 mg/kg, route intravenous; settings: in vivo
Mus musculus [12] = test: Plasma concentration in mouse at 10 mg/kg, po; assay type: ADME, organism-based; design: dose 10 mg/kg, route oral; settings: in vivo
Mus musculus [13] = test: Inhibition of human angiopoietin-1-stimulated Tie2 phosphorylation in mouse lung tissue model at >=30 mg/kg, po; assay type: functional, organism-based
Aurora kinase A = molecular target: T2, Aurora kinase A (Homo sapiens, UniProt O14965); test: Inhibition of Aurora A
T2 sequence (O14965 whole entry): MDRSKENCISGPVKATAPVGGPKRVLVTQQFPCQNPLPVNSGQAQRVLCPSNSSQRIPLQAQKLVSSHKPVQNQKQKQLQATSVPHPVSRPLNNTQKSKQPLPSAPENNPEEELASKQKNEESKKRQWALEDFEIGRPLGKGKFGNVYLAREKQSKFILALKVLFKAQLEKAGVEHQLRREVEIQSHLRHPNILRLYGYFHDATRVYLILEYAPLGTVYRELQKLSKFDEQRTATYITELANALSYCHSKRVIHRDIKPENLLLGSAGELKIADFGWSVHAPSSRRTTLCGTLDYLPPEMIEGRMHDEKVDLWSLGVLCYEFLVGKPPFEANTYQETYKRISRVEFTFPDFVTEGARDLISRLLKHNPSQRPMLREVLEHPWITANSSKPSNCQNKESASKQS

[14] = Inhibition of JNK

Vascular endothelial growth factor receptor 2, sequence (P35968 whole entry): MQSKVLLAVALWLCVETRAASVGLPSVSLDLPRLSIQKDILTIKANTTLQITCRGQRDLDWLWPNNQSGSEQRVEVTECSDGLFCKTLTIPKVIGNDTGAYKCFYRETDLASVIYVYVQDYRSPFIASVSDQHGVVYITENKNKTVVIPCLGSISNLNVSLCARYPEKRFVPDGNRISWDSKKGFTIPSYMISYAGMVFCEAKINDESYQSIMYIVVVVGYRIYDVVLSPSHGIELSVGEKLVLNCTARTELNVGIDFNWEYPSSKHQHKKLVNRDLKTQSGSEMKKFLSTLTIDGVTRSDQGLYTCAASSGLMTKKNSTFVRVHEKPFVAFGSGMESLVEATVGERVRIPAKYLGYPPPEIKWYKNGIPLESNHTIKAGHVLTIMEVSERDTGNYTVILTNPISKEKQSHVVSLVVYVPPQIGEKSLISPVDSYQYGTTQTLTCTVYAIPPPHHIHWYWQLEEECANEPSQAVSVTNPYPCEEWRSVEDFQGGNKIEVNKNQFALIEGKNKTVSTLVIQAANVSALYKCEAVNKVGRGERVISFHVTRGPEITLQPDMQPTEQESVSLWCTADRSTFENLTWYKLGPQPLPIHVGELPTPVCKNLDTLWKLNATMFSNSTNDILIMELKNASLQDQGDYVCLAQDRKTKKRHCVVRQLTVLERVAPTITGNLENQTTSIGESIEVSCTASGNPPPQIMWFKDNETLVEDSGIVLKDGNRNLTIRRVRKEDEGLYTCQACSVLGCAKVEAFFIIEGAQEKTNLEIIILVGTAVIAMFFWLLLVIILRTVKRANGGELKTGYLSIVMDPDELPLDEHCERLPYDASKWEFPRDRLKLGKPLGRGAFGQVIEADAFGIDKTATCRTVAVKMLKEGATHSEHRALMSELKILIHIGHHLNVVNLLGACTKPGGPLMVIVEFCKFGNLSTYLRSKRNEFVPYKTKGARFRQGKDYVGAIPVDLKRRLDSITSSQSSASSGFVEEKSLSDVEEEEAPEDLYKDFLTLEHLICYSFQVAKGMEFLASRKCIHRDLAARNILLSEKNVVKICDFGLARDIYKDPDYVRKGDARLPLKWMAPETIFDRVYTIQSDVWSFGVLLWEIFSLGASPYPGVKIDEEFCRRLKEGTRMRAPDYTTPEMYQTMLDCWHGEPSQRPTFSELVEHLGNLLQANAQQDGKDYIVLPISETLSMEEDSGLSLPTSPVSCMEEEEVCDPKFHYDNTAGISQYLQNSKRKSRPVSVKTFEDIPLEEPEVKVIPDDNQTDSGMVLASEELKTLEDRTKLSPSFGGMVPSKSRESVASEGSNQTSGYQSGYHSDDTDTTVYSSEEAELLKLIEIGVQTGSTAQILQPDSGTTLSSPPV
T1 sequence (Q02763 whole entry): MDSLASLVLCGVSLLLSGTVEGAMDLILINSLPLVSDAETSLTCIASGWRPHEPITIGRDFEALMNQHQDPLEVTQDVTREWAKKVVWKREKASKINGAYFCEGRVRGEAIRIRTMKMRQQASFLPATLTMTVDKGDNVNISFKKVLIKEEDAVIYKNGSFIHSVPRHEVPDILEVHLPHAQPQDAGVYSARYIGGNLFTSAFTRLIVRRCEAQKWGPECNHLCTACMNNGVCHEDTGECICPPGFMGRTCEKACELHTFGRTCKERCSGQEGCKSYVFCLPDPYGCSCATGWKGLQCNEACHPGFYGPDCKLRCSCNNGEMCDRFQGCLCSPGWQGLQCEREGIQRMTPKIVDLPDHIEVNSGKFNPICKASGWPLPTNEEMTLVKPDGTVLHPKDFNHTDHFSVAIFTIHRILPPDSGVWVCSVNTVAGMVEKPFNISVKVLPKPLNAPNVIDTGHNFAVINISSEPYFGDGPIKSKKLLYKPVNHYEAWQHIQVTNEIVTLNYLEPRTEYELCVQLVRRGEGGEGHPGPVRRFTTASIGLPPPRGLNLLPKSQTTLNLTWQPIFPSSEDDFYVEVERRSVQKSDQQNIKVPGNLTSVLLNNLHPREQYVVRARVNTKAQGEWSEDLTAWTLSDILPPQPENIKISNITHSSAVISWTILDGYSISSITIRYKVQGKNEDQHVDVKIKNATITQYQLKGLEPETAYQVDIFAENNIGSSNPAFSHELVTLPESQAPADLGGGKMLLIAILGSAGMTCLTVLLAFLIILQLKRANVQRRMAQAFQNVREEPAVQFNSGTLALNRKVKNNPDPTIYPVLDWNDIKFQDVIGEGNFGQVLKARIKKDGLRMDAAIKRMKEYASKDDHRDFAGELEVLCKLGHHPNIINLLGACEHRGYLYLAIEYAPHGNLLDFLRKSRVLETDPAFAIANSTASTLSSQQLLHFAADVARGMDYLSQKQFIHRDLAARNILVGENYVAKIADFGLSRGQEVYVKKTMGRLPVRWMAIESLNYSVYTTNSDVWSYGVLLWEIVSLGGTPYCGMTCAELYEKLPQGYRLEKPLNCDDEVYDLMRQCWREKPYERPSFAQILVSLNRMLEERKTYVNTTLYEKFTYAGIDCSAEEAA
Aurora kinase B, sequence (Q96GD4 whole entry): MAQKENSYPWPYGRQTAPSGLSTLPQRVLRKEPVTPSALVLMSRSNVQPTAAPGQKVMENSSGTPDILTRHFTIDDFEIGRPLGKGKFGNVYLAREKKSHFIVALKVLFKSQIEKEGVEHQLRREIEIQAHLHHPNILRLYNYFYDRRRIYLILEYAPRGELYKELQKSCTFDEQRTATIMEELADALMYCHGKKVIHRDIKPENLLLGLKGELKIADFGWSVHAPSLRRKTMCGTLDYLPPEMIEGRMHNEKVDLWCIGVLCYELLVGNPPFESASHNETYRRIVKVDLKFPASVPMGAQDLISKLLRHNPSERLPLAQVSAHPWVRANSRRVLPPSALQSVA

| Structure (SMILES) | IC50 (Angiopoietin-1 receptor [1]) [nM] | IC50 [2] [nM] | other results |
| --- | --- | --- | --- |
| CNc1nccc(-c2cccnc2Oc2ccc(Nc3nc4ccccc4[nH]3)cc2)n1 | 250 | > 25000 |  |
| CNc1nccc(-c2cccnc2Oc2ccc(NC(=O)Nc3ccccc3)cc2C)n1 | 460 | 7600 |  |
| CNc1nccc(-c2cccnc2Oc2ccc(Nc3nc4ccccc4[nH]3)c(C)c2)n1 | 590 | > 25000 |  |
| CNc1nccc(-c2cccnc2Oc2ccc(NC(=O)Nc3ccccc3)c3ccccc23)n1 | 5 | 40 |  |
| CNc1nccc(-c2cccnc2Oc2ccc(Nc3nc4ccccc4[nH]3)cc2C)n1 | 23 | > 25000 | IC50 (Angiopoietin-1 receptor [3]): 250 nM |
| CNc1nccc(-c2cccnc2Oc2ccc(NC(=O)Nc3cccc(C(F)(F)F)c3)cc2C)n1 |  | 34 |  |
| CNc1nccc(-c2cccnc2Oc2ccc(Nc3nc4ccccc4n3C)c3ccccc23)n1 | 240 | 250 |  |

More lines, main results first:

| IC50 (Angiopoietin-1 receptor [1]) [nM] | IC50 [2] [nM] | Structure (SMILES) | other results |
| --- | --- | --- | --- |
| 16 | 30 | CNc1nccc(-c2cccnc2Oc2ccc(Nc3nc4ccccc4o3)c3ccccc23)n1 |  |
| 27 | 69 | CNc1nccc(-c2cccnc2Oc2ccc(Nc3nc4cc(C(F)(F)F)ccc4[nH]3)c3ccccc23)n1 |  |
| 110 | 1570 | CNc1nccc(-c2cccnc2Oc2ccc(Nc3nc4c(C)cccc4[nH]3)c3ccccc23)n1 |  |
| 310 | > 25000 | CNc1nccc(-c2cccnc2Oc2ccc(Nc3nc4ccccc4[nH]3)c(C)c2C)n1 |  |
| 470 | 6000 | CNc1nccc(-c2cccnc2Oc2ccc(Nc3nc4ccc(C(F)(F)F)cc4[nH]3)cc2C)n1 |  |
|  | > 5000 | CNc1nccc(-c2cccnc2Oc2c(C)cc(Nc3nc4ccccc4[nH]3)c3ccccc23)n1 | unbound plasma concentration (Plasma): 1 nM; fraction unbound [4]: 0.004; Activity (Mus musculus [5]): 50%; Vd [6]: 5.9 L/kg; bioavailability [7]: 26%; Activity (Mus musculus [8]): Dose-dependent effect; IC50 [9]: > 1200 nM; half-life [10]: 3.7 h; IC50 (Aurora kinase B): 80 nM; clearance [11]: 28 mL/min/kg; concentration (Mus musculus [12]): 260 nM; Activity (Mus musculus [13]): Active; IC50 (Aurora kinase A): 28 nM |
| 44 | 88 | CNc1nccc(-c2cccnc2Oc2ccc(Nc3nc4ccccc4s3)c3ccccc23)n1 |  |
| 1 | 1400 | CNc1nccc(-c2cccnc2Oc2ccc(Nc3nc4ccccc4[nH]3)c3ccccc23)n1 | IC50 (Angiopoietin-1 receptor [3]): 20 nM; EC50 [14]: < 100 nM; IC50 [9]: 120 nM; IC50 (Aurora kinase B): 10 nM; IC50 (Aurora kinase A): 19 nM |
